Test results taken from patent US20240174690A1, “ANNULATED 2-AMINO-3-CYANO THIOPHENES AND DERIVATIVES FOR THE TREATMENT OF CANCER” (BOEHRINGER INGELHEIM INTERNATIONAL GMBH, priority 2021, published 2024).
Read-outs that look alike come from different tables or passages of the source.

Key:
[1] = system: MKN1 cells; assay: MKN1 CTG proliferation assay (120 h) (gastric cancer, wt amplified); assay type: cell-based; conditions: Homo sapiens
Procedure: MKN1 CTG Proliferation Assay (120 h) (Gastric Cancer, Wt Amplified)
MKN1 cells (JCRB0252) are dispensed into white 384-well plates, flat and white bottom (Corning Costar, PNr.: 3570) at a density of 400 cells per well in 50 μL RPMI 1640 (PAN-Biotech, PNr.: P04-18047)+10% FCS (HyClone, PNr.: SH30084.03) (assay 1) or into white 384-well plates, flat and white bottom (Perkin Elmer, 6007680) at a density of 500 cells per well in 40 μl RPMI (Gibco, PNr.: 21875034)+10% FCS (HyClone, PNr.: SH30084.03) (assay 2) or into black 384-well plates, flat and clear bottom (Greiner, PNr. 781091) at a density of 200 cells per well in 60 μl RPMI-1640 (Gibco #A10491)+10% FCS (HyClone, PNr.: SH30084.03)+PenStrep (Gibco, PNr.15140-122) (assay 3). […] Compounds (10 mM stock in DMSO) are added at logarithmic dose series using the HP Digital Dispenser D300 (Tecan) (assay 1+2) or the ECHO acoustic liquid handler system (Beckman Coulter) (assay 3), including DMSO controls and normalizing for added DMSO. Plates are incubated for 120 h, and cell viability is measured using CellTiter-Glo luminescent cell viability reagent (Promega product code G7570). Viability (stated as percent of control) is defined as relative luminescence units RLU of each well divided by the RLU of cells in DMSO controls. IC50 values are determined from viability measurements by non-linear regression using a four-parameter model.

[2] = molecular target: KRAS (WT)::SOS1 (Homo sapiens (Human), UniProt P01116, C118S); assay: KRAS::SOS1 AlphaScreen binding assay, KRAS WT
Description: This assay can be used to examine the potency with which compounds according to the invention binding to (mutated) KRAS inhibit the protein-protein interaction between SOS1 and (mutated) KRAS e.g., KRAS WT, KRAS G12C, KRAS G12D, KRAS G12V, KRAS G13D. […] Low IC50 values in this assay setting are indicative of strong inhibition of protein-protein interaction between SOS1 and KRAS:
These assays measure the inhibitory effect of compounds on KRAS mutant protein-protein interactions using the Alpha Screen technology by Perkin Elmer.
The following (mutant) enzyme forms of KRAS and interacting proteins are used in these assays at the given concentrations: • KRAS (G12D) 1-169, N-terminal 6His-tag, C-terminal avi-tag (Xtal BioStructures, Inc.); final assay concentration 10 nM and SOS1 564-1049, N-terminal 229 GST-tag, TEV cleavage site (Viva Biotech Ltd); final assay concentration 5 nM; • KRAS (G12C) 1-169, N-terminal 6His-tag for purification, cleaved off, C-terminal avi-tag, biotinylated, mutations: C51S, C80L, C118S (in house); final assay concentration 7.5 nM and SOS1 564-1049, N-terminal 229 GST-tag, TEV cleavage site (Viva Biotech Ltd); final assay concentration 5 nM; • KRAS (G12V) 1-169, N-terminal 6His-tag for purification, cleaved off, C-terminal avi-tag, biotinylated, TEV cleavage site, mutation: C118S, GDP loaded (in house); final assay concentration 10 nM and SOS1 564-1049, N-terminal 229 GST-tag, TEV cleavage site (Viva Biotech Ltd); final assay concentration 10 nM; • KRAS (G13D) 1-169, N-terminal 6His-tag for purification, cleaved off, C-terminal avi-tag, biotinylated, TEV cleavage site, mutation: C118S, GDP loaded (in house); final assay concentration 10 nM and SOS1 564-1049, N-terminal 229 GST-tag, TEV cleavage site (Viva Biotech Ltd); final assay concentration 10 nM; • KRAS (WT) 1-169, N-terminal 6His-tag for purification, cleaved off, C-terminal avi-tag, biotinylated, TEV cleavage site, mutation: C118S, GDP loaded (in house); final assay concentration 10 nM and SOS1 564-1049, N-terminal 229 GST-tag, TEV cleavage site (Viva Biotech Ltd); final assay concentration 10 nM.
Test compounds dissolved in DMSO are dispensed onto assay plates (Proxiplate 384 PLUS, white, PerkinElmer; 6008289) using an Access Labcyte Workstation with the Labcyte Echo 55×. For the chosen highest assay concentration of 100 μM, 150 nL of compound solution are transferred from a 10 mM DMSO compound stock solution. A series of eleven fivefold dilutions per compound are transferred to the assay plate, compound dilutions are tested in duplicates. DMSO are added as backfill to a total volume of 150 nL.
The assays run on a fully automated robotic system in a darkened room below 100 Lux. To 150 nl of compound dilution 10 μl of a mix including KRAS mutant protein, SOS1 (final assay concentrations see above) and GDP nucleotide (Sigma G7127; final assay concentration 10 μM) in assay buffer (1×PBS, 0.1% BSA, 0.05% Tween 20) are added into columns 1-24.
After 30 minutes incubation time 5 μl of Alpha Screen bead mix in assay buffer are added into columns 1-23. Bead mix consists of AlphaLISA Glutathione Acceptor Beads (PerkinElmer, Cat No AL109) and AlphaScreen Streptavidin Donor Beads (PerkinElmer Cat No 6760002) in assay buffer at a final assay concentration of 10 μg/ml each.
Plates are kept at room temperature in a darkened incubator. After an additional 60 minutes incubation time the signal is measured in a PerkinElmer Envision HTS Multilabel Reader using the AlphaScreen specs from PerkinElmer.
Each plate contains up to 16 wells of a negative control depending on the dilution procedure (platewise or serial) (DMSO instead of test compound; with KRAS mutant::SOS1 GDP mix and bead mix; column 23) and 16 wells of a positive control (DMSO instead of test compound; with KRAS mutant::SOS1 GDP mix w/o bead mix; column 24).
As internal control known inhibitors of KRAS mutant::SOS1 interaction can be measured on each compound plate. […]

[3] = system: GP2D cells; assay: GP2D proliferation assay (120 h) (colorectal cancer, G12D); assay type: cell-based
Procedure: GP2D Proliferation Assay (120 h) (Colorectal Cancer, G12D)
GP2D cells (ATCC No. CRL-5807) are dispensed into white 384-well plates, flat and white bottom (Perkin Elmer, 6007680) at a density of 500 cells per well in 40 μl DMEM (Sigma, D6429)+1×GlutaMAX (Gibco, 35050038)+10% FCS (fetal calf serum). […] Compounds (10 mM stock in DMSO) are added at logarithmic dose series using the HP Digital Dispenser D300 (Tecan), including DMSO controls and normalizing for added DMSO. For the TO time point measurement, untreated cells are analyzed at the time of compound addition. Plates are incubated for 120 h, and cell viability is measured using CellTiter-Glo luminescent cell viability reagent (Promega product code G7570). Viability (stated as percent of control) is defined as relative luminescence units RLU of each well divided by the RLU of cells in DMSO controls. IC50 values are determined from viability measurements by non-linear regression using a four parameter model.

[4] = MKN-1, assay 2, CTG 120 h, read-out: MKN1 (assay 2) IC50
[5] = MKN-1, assay 3, CTG 120 h, read-out: MKN1 (assay 3) IC50

Sequence of KRAS (WT)::SOS1 (P01116 other isoform, or with tags, fused parts or gaps C118S): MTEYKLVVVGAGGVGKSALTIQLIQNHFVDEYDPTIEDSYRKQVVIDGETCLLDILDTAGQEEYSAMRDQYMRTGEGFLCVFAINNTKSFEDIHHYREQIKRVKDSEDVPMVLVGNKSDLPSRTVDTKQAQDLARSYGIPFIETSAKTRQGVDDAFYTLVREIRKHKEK

Compound | IC50 [1, 4] [nM] | IC50 [2] [nM] | IC50 [3] [nM] | IC50 [1, 5] [nM] | IC50 ([1]; MKN-1, assay 1, CTG 120 h, read-out: MKN1 (assay 1) IC50) [nM]
C[C@H](Oc1cc(N2CCNC3(CC3)C2)nc(-c2onc3c2CCC[C@@]32CCCc3sc(N)c(C#N)c32)n1)[C@@H]1CCCN1C [I-5] | 499 | 4 | 1 | – | –
C[C@H](Oc1cc(N2CCN(C)CC2)nc(-c2noc3c2CCC[C@@]32CCCc3sc(N)c(C#N)c32)n1)[C@@H]1CCCN1C [II-55] | – | 10 | 46 | 876 | –
C[C@H](Oc1cc(-n2cncc3ccnc2-3)nc(-c2noc3c2CCC[C@@]32CCCc3sc(N)c(C#N)c32)n1)[C@@H]1CCCN1C [II-105] | – | 4 | 463 | 426 | –
C[C@H](Oc1cc(N2CC[C@H](N(C)C)C2)nc(-c2noc3c2CCC[C@@]32CCCc3sc(N)c(C#N)c32)n1)[C@@H]1CCCN1C [II-49] | > 3000 | 20 | 6 | 501 | –
C[C@H](Oc1cc(-c2ccn(C)n2)nc(-c2noc3c2CCC[C@@]32CCCc3sc(N)c(C#N)c32)n1)[C@@H]1CCCN1C [II-96] | – | 5 | 809 | – | –
C[C@H](Oc1cc([C@@H]2CCOC2)nc(-c2noc3c2CCC[C@@]32CCCc3sc(N)c(C#N)c32)n1)[C@@H]1CCCN1C [II-94] | – | 3 | 26 | 51 | 32
C[C@H](Oc1cc(-c2cnn(C)n2)nc(-c2noc3c2CCC[C@@]32CCCc3sc(N)c(C#N)c32)n1)[C@@H]1CCCN1C [II-86] | – | 5 | 824 | – | –
C[C@H](Oc1cc(-n2cc3c(n2)CCNC3)nc(-c2noc3c2CCC[C@@]32CCCc3sc(N)c(C#N)c32)n1)[C@@H]1CCCN1C [II-53] | – | 5 | 29 | 994 | –
C[C@H](Oc1cc(N2CCOC3(COC3)C2)nc(-c2noc3c2CCC[C@@]32CCCc3sc(N)c(C#N)c32)n1)[C@@H]1CCCN1C [II-77] | – | 4 | 37 | 18 | –
